{
  "source": "paper doi:10.1101/2025.02.17.638454",
  "about": "“Synergistic RAS-MAPK and AKT Activation in MYC-Driven Tumors via Adjacent PVT1 Rearrangements” (bioRxiv, 2025)",
  "key": {"[1]": {"test_system": "MYC", "assay": "q-RT-PCR of MYC transcript in COLO-320DM", "assay_type": "cell-based, human", "settings": "COLO320DM, induction of HNB (-/+ Dox); n=3, unpaired t-test, 0.0011", "procedure": "(§1) Total RNA was extracted with the TRIzol (Roche, Indianapolis, IN) as described by the manufacturer and complementary DNA synthesis, 1 μg of total RNA was reverse transcribed by using the GoScriptTM Reverse Transcription Mix, Random Primer Protocol (Promega, Madison, WI). Real-time PCR was run in triplicate using PowerUpTM SYBRTM Green Master Mix (Thermo Fisher Scientific), following the manufacturer’s instructions. Real-time PCR amplification monitoring was performed using the CFX96 Touch Real-Time PCR Detection System (Bio-Rad). Data were expressed as relative mRNA levels normalized to the GAPDH, served as endogenous normalization control expression levels in each sample, and are represented as mean ± standard error of the mean between 2 independent experiments unless otherwise indicated in the figure legend. The primer sequences are listed in the Supplementary Table.\n(§2) The HNB ORF and eGFP (control) were cloned in an inducible lentivirus expression, TRE-gateway plasmid (pLIX_403, Addgene, #41395). Lentivirus was produced in HEK293T cells using the protocol described above. […] The protein lysates were collected and quantified using the previously described protocol. […] Bound proteins were detected with horseradish-peroxidase–conjugated secondary antibodies (Cell Signaling Technologies) and SuperSignal West Femto (Thermo Fisher Scientific). […]"}, "[2]": {"test_system": "MYC", "assay": "q-RT-PCR of MYC transcript in D458", "assay_type": "cell-based, human", "settings": "D458, induction of HNB (-/+ Dox); n=3, unpaired t-test", "procedure": "as §1, §2"}},
  "note": "No end group written: not given here.",
  "data": [
    {"sequence": "MKTQLGAVKGFLHV [HNB]", "values": [
      {"measurement": "MYC mRNA level", "setting": "[1]", "value": "significantly reduced MYC expression at the mRNA as well as the protein levels"},
      {"measurement": "MYC mRNA level", "setting": "[2]", "value": "significantly reduced MYC expression at the mRNA as well as the protein levels"}
    ]}
  ]
}
